Assay results taken from US20120029177A1, “HETEROCYCLE-AMINO ACID DERIVATIVES FOR TARGETING CANCER TISSUE AND RADIOACTIVE OR NON-RADIOACTIVE LABELED COMPOUNDS THEREOF” (SNU R&DB FOUNDATION, priority 2009, published 2012).

What was measured:
[1] = test system: SNU-C4 xenografted nude mice; test: PET imaging of tumor xenografted mice; type: in vivo, mouse; settings: PET at 1 and 2 hr post-injection, FIG. 2
Description: Human colon cancer cell line SNU-C4 was cultured in RPMI1640 media containing 10% fetal bovine serum and harvested using trypsin. The cells were washed using 10 mL PBS and centrifugation at 3,000 rpm. Each nude mouse was injected with 2×10^5 cells/0.1 mL on the right shoulder subcutaneously. On 14 days post-injection, each 10 μCi/0.1 mL of ^68Ga labeled agent was injected into the xenografted mice through the tail vein. The injected mice were anesthetized using 2% isoflurane, PET images were obtained at 1 and 2 hr post-injection using rodent R4, microPET scanner (Concorde Microsystem Inc.). The images were analyzed using ASIPro software (Concorde Microsystem Inc.).

[2] = test system: SNU-C4 xenografted nude mice; test: Biodistribution study in SNU-C4 xenografted nude mice after intravenous injection; type: in vivo, mouse; settings: for % ID/g Tumor: SNU-C4 tumor
Description: Human colon cancer cell line SNU-C4 was cultured in RPMI1640 media containing 10% fetal bovine serum and harvested using trypsin. The cells were washed using 10 mL PBS and centrifugation at 3,000 rpm. Each nude mouse was injected with 2×10^5 cells/0.1 mL on the right shoulder subcutaneously. On 13 days post-injection, each 10 μCi/0.1 mL of ^68Ga labeled agent was injected into the xenografted mice through the tail vein. The injected mice were sacrificed at 10 min, 30 min, 1 hr, and 2 hr, cancer, blood, muscle, heart, liver, spleen, stomach, intestine, and bone were obtained, weighed, and their radioactivities were counted. The results were expressed as percentages of injected dose per gram tissue (% ID/g).

Hep3B cells = test: In vitro cell uptake, Hep3B (FIG. 1c); type: cell-based, human; settings: control ^68Ga-NOTA
U87MG cells = test: In vitro cell uptake, U87MG (FIG. 1a); type: cell-based, human; settings: controls ^68Ga-DOTA, ^68Ga-NOTA
Description: Human colon cancer cell line SNU-C4 was purchased from Korea Cell Line Bank (KCLB). Human thyroid cell line ARO, human liver cancer cell line Hep3B, human glioma cell line U251MG and U87MG, and mouse colon cell line CT-26 were purchased from American Type Culture Collection (ATCC). SNU-C4 and ARO were culture in RPMI1640 (Welgene Inc., Korea) and Hep3B, U251 MG, U87MG, and CT-26 were cultured in DMEM (Welgene Inc., Korea). Penicillin, streptomycin and amphotericin B (10,000 IU/mL, 10 mg/mL and 25 μg/mL, respectively, Mediatech Inc., U.S.A.) 1% mixture and fetal bovine serum (Welgene Inc., Korea) were added to all cell culture media. Cell culture was done in 37° C. incubator with supply of 5% CO2.
About 1.8×10^5 cells/mL CT-26 and 1.2×10^5 cells/mL U87MG were put into 24-well incubation plate and incubated for 20 hr. When the each well was about 80% confluent with cells, 296 kBq/0.5 mL of ^68Ga labeled agent was added to each well. Culture supernatants were discarded at each time point and cells were washed with ice-cooled Hank's balanced salt solution (HBSS, pH7.3, Gibco, U.S.A.) 2 times. The cells were dissolved by 0.5% sodium dodecylsulfate (SDS), recovered and counted using a gamma counter (Packard, Can berra Co., U.S.A.). Total protein amount in each sample was measured by bicinchonic acid (BCA, Pierce, U.S.A.) method.

[3] = 10 min after intravenous injection
[4] = 30 min after intravenous injection
[5] = 1 hr after intravenous injection
[6] = 2 hr after intravenous injection

NC(CNC(=O)CN1CCN(CC(=O)[O-])CCN(CC(=O)[O-])CC1)C(=O)[O-].[68Ga+3] (centres unmarked) [^68Ga-NOTA-ala]
PET image quality [1]: the highest quality image | tumor uptake in PET images [1]: high tumor uptakes | % ID/g Tumor [2, 3]: 2.87 ± 0.58 % ID/g | % ID/g Tumor [2, 4]: 1.40 ± 0.43 % ID/g | % ID/g Tumor [2, 5]: 0.73 ± 0.25 % ID/g | % ID/g Tumor [2, 6]: 0.61 ± 0.34 % ID/g | tumor uptake compared with the control heterocyclic compound (in words) ([2]; SNU-C4 xenografted nude mice, 10 min to 2 hr): higher and increasing by time | tumor uptake relative to that of ^68Ga-NOTA ([2]; at 10 min): 1.07 times | tumor uptake relative to that of ^68Ga-NOTA ([2]; at 30 min): 1.09 times | tumor uptake relative to that of ^68Ga-NOTA ([2]; at 1 hr): 1.24 times | tumor uptake relative to that of ^68Ga-NOTA ([2]; at 2 hr): 1.42 times | % ID/g Blood [2, 3]: 7.46 ± 0.78 % ID/g | % ID/g Blood [2, 4]: 2.69 ± 0.59 % ID/g | % ID/g Blood [2, 5]: 0.73 ± 0.05 % ID/g | % ID/g Blood [2, 6]: 0.15 ± 0.03 % ID/g | % ID/g Bone [2, 3]: 2.22 ± 0.34 % ID/g | % ID/g Bone [2, 4]: 1.05 ± 0.35 % ID/g | % ID/g Bone [2, 5]: 0.47 ± 0.09 % ID/g | % ID/g Bone [2, 6]: 0.10 ± 0.07 % ID/g | % ID/g Heart [2, 3]: 2.13 ± 0.13 % ID/g | % ID/g Heart [2, 4]: 0.71 ± 0.17 % ID/g | % ID/g Heart [2, 5]: 0.26 ± 0.03 % ID/g | % ID/g Heart [2, 6]: 0.10 ± 0.05 % ID/g | % ID/g Intestine [2, 3]: 1.74 ± 0.22 % ID/g | % ID/g Intestine [2, 4]: 0.77 ± 0.19 % ID/g | % ID/g Intestine [2, 5]: 0.44 ± 0.07 % ID/g | % ID/g Intestine [2, 6]: 0.35 ± 0.11 % ID/g | % ID/g Kidney [2, 3]: 20.96 ± 7.35 % ID/g | % ID/g Kidney [2, 4]: 9.07 ± 1.68 % ID/g | % ID/g Kidney [2, 5]: 5.81 ± 0.57 % ID/g | % ID/g Kidney [2, 6]: 4.04 ± 0.63 % ID/g | % ID/g Liver [2, 3]: 2.08 ± 0.25 % ID/g | % ID/g Liver [2, 4]: 1.34 ± 0.22 % ID/g | % ID/g Liver [2, 5]: 1.05 ± 0.04 % ID/g | % ID/g Liver [2, 6]: 0.84 ± 0.18 % ID/g | % ID/g Muscle [2, 3]: 2.29 ± 0.52 % ID/g | % ID/g Muscle [2, 4]: 0.87 ± 0.33 % ID/g | % ID/g Muscle [2, 5]: 0.26 ± 0.05 % ID/g | % ID/g Muscle [2, 6]: 0.06 ± 0.04 % ID/g | % ID/g Spleen [2, 3]: 1.84 ± 0.10 % ID/g | % ID/g Spleen [2, 4]: 0.93 ± 0.14 % ID/g | % ID/g Spleen [2, 5]: 0.55 ± 0.07 % ID/g | % ID/g Spleen [2, 6]: 0.48 ± 0.11 % ID/g | % ID/g Stomach [2, 3]: 2.46 ± 0.31 % ID/g | % ID/g Stomach [2, 4]: 0.79 ± 0.17 % ID/g | % ID/g Stomach [2, 5]: 0.33 ± 0.08 % ID/g | % ID/g Stomach [2, 6]: 0.18 ± 0.05 % ID/g | tumor cell uptake versus control agents (Hep3B cells): significantly increase tumor cell uptakes | tumor cell uptake versus control agents (U87MG cells): significantly increase tumor cell uptakes

NC(CCCCNC(=O)CN1CCN(CC(=O)[O-])CCN(CC(=O)[O-])CC1)C(=O)[O-].[68Ga+3] (centres unmarked) [^68Ga-NOTA-lys]
tumor cell uptake versus control agents (Hep3B cells): significantly increase tumor cell uptakes
